Reference: US8652536B2, “Skin clarifying complex, use of said complex, cosmestic or pharmaceutical composition comprising said complex and method for application thereof” (Natura Cosmeticos S.A., priority 2009, dated 2014)

Columns and labels:
Assay type in all cases: cell-based
[1] = tested on: line B16 melanocytes; assay: cells; details: for amount of melanin, % control: vs Control DMSO
Protocol: The assay methodology for the test lasted for five days in which, initially, line B16 melanocytes were plated on 12 well-conditioned containers, at a rate of 75,000 cells/plate.
On the three following days, 10mg (11 μl to linoleic acid) of component in the mixture were diluted in 100 μl of DMSO (dimethyl-sulfoxide) and, then, 9.9 ml of DMEM (culture medium) serum free were added so as to finally obtain 1 mg/ml of stock solution.
Sequentially, these solutions were incubated at 37° C. to assist solubilization of the samples. 10% bovine fetal serum (BFS) were added to the final dilution.
The actives are: gallic acid and linoleic acid.
On day five of the test the cells were divided into two steps of characterization: • Assessment of melanin in which the cells were first “washed” with PBS and then the cellular layer was dissolved into 500 μl of 3N NaOH and the suspension homogenized by pipetting. Two 200 μl portions of suspension were plated for optical reading at 400 nm.

[2] = tested on: culture medium corresponding to the epidermis; assay: Melanin extracted from epidermis culture after 6 days of treatment; details: 6 days treatment, kojic acid 250 μM, A 25 μg/ml, B 75 μg/ml, A + B 25 + 75 μg/ml; for melanin extracted from epidermis, Mean (%): % of control; for Reduction (%) of melanin extracted from epidermis: vs control
Protocol: In another example samples containing an extract of Brazilian […] extract (A), linoleic acid (B) and a mixture of the active ingredients linoleic acid and gallic acid (A+B), respectively, were compared to a control and to kojic acid as far as the reduction of the amount of melanin is concerned. Each sample was applied to a culture medium corresponding to the epidermis and the concentrations of melanin were measured after 6 days of treatment.

[3] = tested on: 3T3 cells; assay: Cytotoxicity assay, Neutral Red, 24 hours incubation
[4] = tested on: 3T3 cells; assay: Phototoxicity test, Neutral Red capture with and without UVA radiation; details: with and without non-cytotoxic dose of UVA
Protocol: Cytotoxicity assay allows determining the cytotoxic concentration of an active, when 3T3 cells are incubated therewith for 24 hours. Toxicity is determined as a function of cell viability, monitored by incubation of 3T3 cells with Neutral Red, and essential dye incorporated by living cells 24 hours 24 hours after contacting the active. Such assessment uses methodologies established by the National Institute of Health (NIH), USA, acknowledged internationally (Guidance NIH, 2001). The phototoxicity test is based on a comparison of the toxicity of an active in the presence and absence of a non-cytotoxic dose of UVA radiation. Phototoxicity is measured by Neutral Red capture by those cells surviving incubation with the active, according to a protocol already established and standardized by COLIPA and OECD (ZEBET/ECVAM/COLIPA, 1998; OECD, 2004). Phototoxicity/photoirritation is defined as the toxic response caused after a first exposure of the skin to certain products/actives and the subsequent exposure to sun light or induced by an irradiation of the skin after systemic administration of an active/product.

**Q.** Which results are given for CCCCC/C=C\C/C=C\CCCCCCCC(=O)O [linoleic acid]?
**A.** inhibition at 25 µg/mL ([1]; Melanocyte, active alone at 0.025 mg/ml (its concentration in the mixture), read-out: inhibition of melanin by active alone): 8.1%; inhibition at 50 µg/mL ([1]; Melanocyte, active alone at 0.05 mg/ml (its concentration in the mixture), read-out: inhibition of melanin by active alone): 15.9%; inhibition at 75 µg/mL ([1]; Melanocyte, active alone at 0.075 mg/ml (its concentration in the mixture), read-out: inhibition of melanin by active alone): 19%; amount of melanin, % control ([1]; active alone at 0.025 mg/ml, α-MSH): 91.9% control; amount of melanin, % control ([1]; active alone at 0.05 mg/ml, α-MSH): 84.1% control; amount of melanin, % control ([1]; active alone at 0.075 mg/ml, α-MSH): 81.0% control; melanin extracted from epidermis, Mean (%) [2]: 80.67%; melanin extracted from epidermis, Mean [2]: 21.4 µg/mL; Reduction (%) of melanin extracted from epidermis ([2]; listed as B): 19.33%; Reduction (%) of melanin extracted from epidermis ([2]; listed as sample B): 19.3%; Cytotoxicity [3]: Not cytotoxic; Phototoxicity [4]: Not phototoxic

**Q.** Which “melanin synthesis, % control” value ([1]; comparison with pharmaceutical and market actives at the same concentration, printed 0.01 mg/ml, α-MSH, FIG. 4) does the source give for OC[C@H]1O[C@@H](Oc2ccc(O)cc2)[C@H](O)[C@@H](O)[C@@H]1O [Arbutin, reference compound] here?
**A.** 82.5 % control

**Q.** For O=c1cc(CO)occ1O [Kojic acid, reference compound], which “melanin extracted from epidermis, Mean (%)” value [2] is on record?
**A.** 78.98%

**Q.** What about the “melanin extracted from epidermis, Mean” value [2] of the same compound?
**A.** 20.95 µg/mL

**Q.** What about the “Reduction (%) of melanin extracted from epidermis” value [2] of the same compound?
**A.** 21.02%

**Q.** And the “Reduction (%) of melanin extracted from epidermis” value ([2]; listed as kojic acid)?
**A.** about 21.02%
